# Assay results: patent publication US20200181284A1, “EPIGENETIC INHIBITORS FOR SENSITIZING HEMATOLOGIC OR OTHER MALIGNANCIES TO GLUCOCORTICOID THERAPY” (UNIVERSITY OF SOUTHERN CALIFORNIA, priority 2017, published 2020)
# Legend:
# Type in all cases: cell-based, human
# [1] = test system: NALM6 cells; test: Cell death assay (Presto Blue, 72 h) with dex plus inhibitor
# Protocol: Cells were plated in CellStar low evaporation lid 96-well round-bottom plate at a density of 100,000 cells/ml. Directly after plating, cells were treated in triplicate with serial dilutions of dexamethasone or vehicle control (0.1% ethanol). After 72 h, cell viability of each well was analyzed in duplicate using the Presto Blue Assay Reagent (Life Technologies). Fluorescence was measured and data were analyzed with Prism6 software.
# FIGS. 40A, 40B, 40C, 40D-1, 40D-2, 40D-3, and 40D-4 show Aurora kinase B inhibitors sensitizing NALM6 cells to GC-induced cell death. As shown in FIGS. 40A and 40B, NALM6 cells were treated with the indicated dex concentration in addition to 0.75 μM ZM447439 (FIG. 40A), 16 nM AZD2811 (FIG. 40B), or equivalent volume of vehicle DMSO for 72 h, and cell survival was measured by a fluorescence metabolic assay. In each condition, the value measured with dex was normalized to the fluorescence value measured with ethanol. Percentage of survival is shown as the mean±SEM of 4 independent experiments and p-values for individual dex concentrations were calculated using a paired t-test. *p≤0.05, **p≤0.01, * * *p≤0.001. F-test comparing the two curves: p≤0.001. Insets show the EC50s that were calculated as the concentration at which half the cells remained alive, compare to vehicle controls. Error bars depict the SEM of 4 independent experiments and p-values were calculated to compare AURKB inhibitor treatment to DMSO using a paired t-test ** p≤0.01, * * *p≤0.001. […] The indicated proteins were then examined by immunoblot. As shown in FIGS. 40D-1, 40D-2, 40D-3, and 40D-4, NALM6 cells pre-treated with AZD2811 (16 nM) or DMSO for 24 h, were then treated for 8 h with 100 nM dex or ethanol. mRNA levels for the indicated GR target genes were measured by RT-qPCR and normalized to β-actin mRNA levels.
# FIGS. 48A, 48B, 48C, 48D, 48E, and 48F show the effect of AURKB inhibitors on EHMT2 phosphorylation and dex-induced cell death. […] In each condition, the value measured with dex was normalized to the fluorescence value measured with ethanol. Percentage of survival is shown as the mean±SEM of 4 independent experiments and p-values for individual dex concentrations were calculated using a paired t-test. *p≤0.05, **p≤0.01, * * *p≤0.001. F-test comparing the two curves: p≤0.001. EC50s were calculated as the concentration at which half the cells remained alive, compare to vehicle controls. Error bars depict the SEM of 4 independent experiments and p-value was calculated to compare ZM treatment to DMSO using a paired t-test **p≤0.01, * * *p≤0.001. […] EC50s were calculated as the concentration at which half the cells remained alive, compare to vehicle controls. Error bars depict the SEM of 4 independent experiments and p-value was calculated to compare alisertib treatment to DMSO using a paired t-test. […] (E-F) RCH-ACV cells were treated with the indicated dex concentration in addition to 0.75 μM ZM447439 (FIG. 48E), 16 nM AZD2811 (FIG. 48F), or DMSO for 72 h, and cell survival was measured by a fluorescence metabolic assay. In each condition, the value measured with dex was normalized to the fluorescence value measured with ethanol. Percentage of survival is shown as the mean±SEM of 5 individual experiments and the p-value for each dex concentration was calculated using a paired t-test. *p≤0.05, **p≤0.01, * * *p≤0.001. F-test comparing the two curves: p≤0.001.
# FIGS. 55A, 55B, and 55C show JIB-04 enhances GC-induced death of B-ALL cell line NALM6.
# [2] = test system: NALM6 cells; test: Immunoblot of apoptosis markers (cleaved caspase 3, caspase 7, PARP1) in NALM6 cells; details: NALM6, 24-hour treatment with KDM inhibitor
# Protocol: Cells were treated as indicated, and cell extracts were prepared in RIPA buffer ([…] Tris-HCl, pH 8, 150 mM NaCL, 1 mM EDTA, 1% NP-40, and 0.25% deoxycholate) supplemented with protease inhibitor tablets (Roche Molecular Biochemicals) and phosphatase inhibitors (1 mM NaF, 1 mM Na3VO4, and 1 mM β-glycerophosphate). Protein extracts were incubated overnight at 4° C. with shaking with 1 μg of antibodies against EHMT2 (Sigma G6919), EHMT1 (Millipore 09-078), or pan phospho-threonine (Millipore AB1607). Protein A/G plus agarose beads (Santa Cruz sc-2003) were added, and the mixture was incubated 2 h at 4° C. The immunoprecipitates were separated on SDS-PAGE. […]
# FIGS. 40A, 40B, 40C, 40D-1, 40D-2, 40D-3, and 40D-4 show Aurora kinase B inhibitors sensitizing NALM6 cells to GC-induced cell death. As shown in FIGS. 40A and 40B, NALM6 cells were treated with the indicated dex concentration in addition to 0.75 μM ZM447439 (FIG. 40A), 16 nM AZD2811 (FIG. 40B), or equivalent volume of vehicle DMSO for 72 h, and cell survival was measured by a fluorescence metabolic assay. In each condition, the value measured with dex was normalized to the fluorescence value measured with ethanol. Percentage of survival is shown as the mean±SEM of 4 independent experiments and p-values for individual dex concentrations were calculated using a paired t-test. *p≤0.05, **p≤0.01, * * *p≤0.001. […]
# [3] = test system: G9a methylation; test: G9a methylation level in NALM6 cells treated with KDM inhibitors
# From the text: There are two distinct families of KDM with distinct catalytic mechanisms (FIG. 50B). We tested one inhibitor for each family: OG-L002 inhibits the two members of the LSD family of KDM, and JIB-04 inhibits several members of the large JmjC family of KDM, including members of the KDM2, KDM3, and KDM4 subfamilies. We propose that there is an equilibrium between the enzymes that methylate G9a and GLP (in this case they methylate themselves) and the KDM enzymes to maintain a moderate level of G9a/GLP methylation (FIGS. 50C-1, 50C-2), and that inhibition of the KDMs that normally demethylate G9a and GLP (currently unknown) will increase the level of G9a/GLP methylation and thereby enhance the coactivator activity of G9a/GLP, the GC activation of the cell death genes, and GC-induced cell death in B-ALL cells. Thus, as a first step to identify the G9a/GLP-specific demethylases, we treated NALM6 cells with the two inhibitors named above. OG-L002 had no effect on the level of G9a methylation, but JIB-04 increased the level of G9a methylation in NALM6 cells (FIG. 50D).
compound,measurement,setting,value
"Clc1ccc(N/N=C(\c2ccccc2)c2ccccn2)nc1 [JIB-04, 5-chloro-N-[(E)-[phenyl(pyridin-2-yl)methylidene]amino]pyridin-2-amine]",GC-induced death of NALM6 cells,[1]; 72 hours with various dex concentrations plus KDM inhibitor,effectively enhanced
same,"dex-induced cleavage of caspase-3, caspase-7, and PARP1",[2],enhanced
same,level of G9a methylation,[3],increased
"COc1cc2c(Nc3ccc(NC(=O)c4ccccc4)cc3)ncnc2cc1OCCCN1CCOCC1 [ZM447439, N-[4-[[6-methoxy-7-(3-morpholin-4-ylpropoxy)quinazolin-4-yl]amino]phenyl]benzamide]",sensitivity of NALM6 cells to dex-induced apoptosis,"[1]; 0.75 µM ZM447439 stronger effect than 0.625 μM, 72 h",significantly sensitized
